Measured values: PubChem BioAssay (NCI)
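Results reflect a 48-hour exposure of cells in 96-well plates to compound at five concentrations. TGI is the concentration that stops growth completely.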

Assays:
Assay in all cases: NCI tumour cell line growth inhibition, 48 h
[1] = tested on: RXF 393 renal
[2] = tested on: RPMI-8226 leukemia
[3] = tested on: HL-60(TB) leukemia
[4] = tested on: SK-MEL-5 melanoma
[5] = tested on: SK-OV-3 ovarian
[6] = tested on: SK-MEL-2 melanoma
[7] = tested on: SF-268 CNS
[8] = tested on: SF-539 CNS
[9] = tested on: HCT-116 colon
[10] = tested on: HOP-92 NSCLC
[11] = tested on: SNB-19 CNS
[12] = tested on: K-562 leukemia
[13] = tested on: HCT-15 colon
[14] = tested on: NCI/ADR-RES ovarian
[15] = tested on: BT-549 breast
[16] = tested on: MDA-N

Structure (SMILES)	TGI [1]	TGI [2]	TGI [3]	TGI [4]	TGI [5]	TGI [6]	TGI [7]	TGI [8]	TGI [9]	TGI [10]	TGI [11]	TGI [12]	TGI [13]	TGI [14]	TGI [15]	TGI [16]
C[N+](C)(C)CC(=O)N/N=C/c1oc(-c2cccc([N+](=O)[O-])c2)c(-c2cccc([N+](=O)[O-])c2)c1[N+](=O)[O-]	> 100 µM	55.3 µM	> 100 µM	> 100 µM	> 100 µM	> 100 µM	> 100 µM	> 100 µM	> 100 µM	> 100 µM	> 100 µM	–	–	–	–	–
Nc1cccc(/C=C/CN2CCN(CCOC(c3ccccc3)c3ccccc3)CC2)c1	25.5 µM	15.2 µM	22.9 µM	26.8 µM	27 µM	33.6 µM	35.7 µM	31.7 µM	25.4 µM	25.4 µM	30.7 µM	16.3 µM	26.1 µM	29.5 µM	29.9 µM	–
COc1ccc(C(=O)/C=C/c2ccc(OCC#N)cc2)cc1OC	33.8 µM	–	–	32.2 µM	> 100 µM	–	85.3 µM	36.9 µM	17.2 µM	44.3 µM	29.9 µM	> 100 µM	45.5 µM	50.2 µM	30 µM	–
c1csc(-c2sc(-c3ccsc3)cc2Cc2ccsc2)c1	> 10 µM	> 10 µM	> 10 µM	> 10 µM	> 10 µM	–	> 10 µM	–	–	> 10 µM	–	> 10 µM	> 10 µM	–	–	> 10 µM
CC(C)(C)OC(=O)N(CCCCNC(=O)c1ccccc1)CCCNC(=O)c1ccccc1	> 100 µM	> 100 µM	> 100 µM	> 100 µM	> 100 µM	> 100 µM	> 100 µM	> 100 µM	> 100 µM	> 100 µM	> 100 µM	> 100 µM	> 100 µM	> 100 µM	> 100 µM	–
CC12OC3(C(O)C1O)C(C(=O)O[C@H]3CO[Si](C)(C)C(C)(C)C)C2S(=O)(=O)c1ccccc1 (some centres undefined)	–	70.8 µM	67.9 µM	–	> 100 µM	> 100 µM	> 100 µM	> 100 µM	> 100 µM	> 100 µM	> 100 µM	> 100 µM	89.6 µM	30.4 µM	–	> 100 µM
CC1(C)CC(=O)C(CC2C(=O)c3ccccc3C2=O)C(=O)C1C(=O)C(=O)Nc1cccc2ccc(O)cc12 (centres undefined)	–	> 100 µM	> 100 µM	> 100 µM	> 100 µM	> 100 µM	> 100 µM	> 100 µM	> 100 µM	> 100 µM	> 100 µM	> 100 µM	> 100 µM	> 100 µM	> 100 µM	–
COC(=O)c1ccc(-n2c(C)nc(=O)c(-c3ccccc3)c2C)cc1	> 100 µM	> 100 µM	> 100 µM	> 100 µM	> 100 µM	> 100 µM	> 100 µM	> 100 µM	> 100 µM	> 100 µM	> 100 µM	> 100 µM	> 100 µM	> 100 µM	> 100 µM	–
CC1C2CC(CC2O)C1(C)C (centres undefined)	> 100 µM	–	> 100 µM	> 100 µM	> 100 µM	–	> 100 µM	> 100 µM	> 100 µM	> 100 µM	> 100 µM	> 100 µM	–	–	> 100 µM	> 100 µM
CC1(Br)S(=O)(=O)OCCOS1(=O)=O	> 100 µM	> 100 µM	> 100 µM	> 100 µM	> 100 µM	> 100 µM	> 100 µM	> 100 µM	> 100 µM	> 100 µM	> 100 µM	> 100 µM	> 100 µM	–	–	–
COc1ccccc1NC(=O)CC(=O)n1nc(-c2ccccc2)c(N=Nc2ccccc2[N+](=O)[O-])c1-c1ccccc1	> 100 µM	> 100 µM	> 100 µM	> 100 µM	> 100 µM	> 100 µM	> 100 µM	> 100 µM	> 100 µM	> 100 µM	> 100 µM	> 100 µM	–	–	–	–
O=S(=O)(c1ccccc1)n1cnc(CCc2ccccc2)n1	> 100 µM	> 100 µM	> 100 µM	> 100 µM	> 100 µM	> 100 µM	> 100 µM	> 100 µM	> 100 µM	> 100 µM	–	> 100 µM	> 100 µM	–	–	–
C=C(C)C1Cc2c(cc(OC)c3c(=O)c4ccccc4n(C)c23)O1 (centres undefined)	> 100 µM	> 100 µM	> 100 µM	> 100 µM	> 100 µM	> 100 µM	> 100 µM	> 100 µM	> 100 µM	> 100 µM	> 100 µM	> 100 µM	> 100 µM	–	–	–
CCCC1=NC(C(F)(F)F)(C(F)(F)F)N=C(N2CCOCC2)O1	> 100 µM	> 100 µM	> 100 µM	> 100 µM	> 100 µM	> 100 µM	> 100 µM	> 100 µM	> 100 µM	> 100 µM	> 100 µM	> 100 µM	> 100 µM	> 100 µM	> 100 µM	–
CC(=O)[C@H]1[C@@H](OCc2ccccc2)O[N+]([O-])=C(C)[C@@H]1c1ccccc1	34.2 µM	37.9 µM	40.8 µM	> 100 µM	> 100 µM	> 100 µM	> 100 µM	45.5 µM	–	62.4 µM	> 100 µM	38 µM	75 µM	> 100 µM	–	> 100 µM
COC(=O)NN/C=C(\C=Nc1ccccc1)[N+](=O)[O-]	> 100 µM	> 100 µM	> 100 µM	> 100 µM	> 100 µM	–	> 100 µM	–	> 100 µM	> 100 µM	> 100 µM	> 100 µM	> 100 µM	–	–	–
CC1=C(S(=O)c2ccc(C)cc2)CCC2(CCCCO2)O1 (centres undefined)	> 100 µM	> 100 µM	> 100 µM	> 100 µM	–	> 100 µM	> 100 µM	–	> 100 µM	–	> 100 µM	> 100 µM	> 100 µM	> 100 µM	> 100 µM	–
